Experimental data published in patent US20030220266A1, “Method of treating a disease” (priority 2001, published 2003).
“Also recorded” adds a separate entry of the source.

What was measured:
Assay type in all cases: cell-based, human
[1] = tested on: COX-2, EP2 and EP4 expression in HeLa cells; test: Real-time RT-PCR of COX-2, EP2 and EP4 in HeLa cells treated with seminal plasma; conditions: HeLa cells co-treated with seminal plasma and inhibitor
Method: In sexually active women growth and invasiveness of neoplastic cervical cells may be also under the direct influence of PGE present in seminal plasma. […] The expression of COX-2, EP2 and EP4, was measured by real-time RT-PCR.

[2] = tested on: COX-1, COX-2 and PGES expression in HeLa COX-1 Tet-Off cells; test: Western blot of COX-1, COX-2 and PGES expression after COX-1 induction; conditions: for effect on COX-1-mediated up-regulation of COX-2 expression / effect on COX-1-mediated up-regulation of PGES expression / effect on COX-1 overexpression: co-treatment of cells induced for 24, 48 and 72 hrs
From the text: (§1) The Tet-Off expression system we used was developed by Gossen and co-workers (38) to deliver doxycycline-regulated expression based on the high specificity of the Escherichia coli tet repressor-operator-doxycycline interaction. In the Tet-Off expression system each clonal cell line is used as its own control (cells cultured in the presence of DOX) and the overexpression of the integrated target gene is modulated solely by removing DOX from the culture medium. This eliminates the need for a control clonal cell line transfected with vector alone (as used with constitutive stable expression systems) thereby overcoming the inherent variation that arises from different sites of integration of DNA between different clones. HeLa Tet-Off cells containing the pTet-Off vector stably transfected and constitutively expressing the tetracycline-controlled transactivator tTA (composed of a fusion of the TetR and VP16 activation domain) were purchased from Clontech. The pBS(SK−)/PSHI cDNA containing the full length COX-1 gene (kindly supplied by Dr Stephen Prescott, University of Utah, Salt Lake City, Utah) was used as the template plasmid. The response plasmid pTRE2 (containing the minimal cytomegalovirus promoter containing Tet-operator sequences cloned upstream of the cDNA to be expressed) and the plasmid for antibiotic selection (pTK-hygromycin) for use with the Tet-Off system were purchased from Clontech. The COX-1 gene was excised from the template plasmid and ligated at the Bam H1 site of the pTRE2 vector. The orientation of the insert was verified by dideoxy DNA sequencing using the sequence specific primers: 5′-[…]-3′ (SEQ ID No 8) and 5′-[…]-3′ (SEQ ID No 9) (Clontech). Cells were plated in 12 well dishes in complete medium containing 10 μg/ml G418 per well and were allowed to attach and grow overnight. The pTRE2 vector containing the COX-1 gene (2 μg) was co-transfected with pTK-hygromycin (0.1 μg, which contains the hygromycin gene under control of the minimal thymidine kinase (TK) promoter) into the HeLa Tet-Off cell line at about 80% confluency using pfx-5 (Invitrogen, De Schelp, Netherlands) diluted in Optimem (Gibco). Cells were incubated for 4 hrs at 37° C. in 5% humidified CO2. Thereafter the medium was replaced with fresh complete medium containing no G418. Cells were allowed to grow for 72 hrs. Transfected cells were then seeded together with wild-type cells. Clones were selected against 200 μg/ml hygromycin in the presence of 1 μg/ml DOX. At least 50 hygromycin-resistant clones were picked using cloning cylinders. Clones were allowed to grow under continuous selection with hygromycin in the presence of DOX and then screened for the ability to express COX-1 in the presence and absence of DOX by immunoblot analysis. […] Unless otherwise stated, all clones were maintained uninduced in 1 μg/ml DOX, 200 μg/ml hygromycin and 100 μg/ml G418. COX-inhibition studies were conducted by growing cells in medium containing 3 μg/ml indomethacin or 10 μM NS-398.
(§2) Cells were seeded in 5 cm dishes and allowed to attach overnight. The following day, the cells were synchronised by incubating with serum-free medium for 24 hrs. Thereafter, the medium was replaced with fresh complete medium and the cells were grown in the presence or absence of DOX for 24, 48 and 72 hrs respectively. In parallel, cells were co-treated with indomethacin or NS-398. Cells were harvested by lysing in protein lysis buffer (150 mM NaCl, 10 mM Tris-HCl pH 7.4, 1 mM EDTA, 1% Triton X-100, 0.1% SDS). The protein content in the supernatant fraction was determined as described above. The clarified cell lysates (20 μg) were denatured and electrophoresed on 4-20% Tris-Glycine gels (NOVEX, Invitrogen).

[3] = tested on: bFGF, VEGF, Ang-1 and Ang-2 expression in HeLa COX-1 Tet-Off cells; test: Western blot of angiogenic factors after COX-1 overexpression; conditions: COX-1 overexpression up to 72 hrs
From the text: as §1, §2

[4] = tested on: HeLa COX-1 Tet-Off cells; test: PGE2 secretion into culture medium (ELISA) after COX-1 induction; conditions: 5 μg/ml arachidonic acid
From the text: The Tet-Off expression system we used was developed by Gossen and co-workers (38) to deliver doxycycline-regulated expression based on the high specificity of the Escherichia coli tet repressor-operator-doxycycline interaction. In the Tet-Off expression system each clonal cell line is used as its own control (cells cultured in the presence of DOX) and the overexpression of the integrated target gene is modulated solely by removing DOX from the culture medium. This eliminates the need for a control clonal cell line transfected with vector alone (as used with constitutive stable expression systems) thereby overcoming the inherent variation that arises from different sites of integration of DNA between different clones. HeLa Tet-Off cells containing the pTet-Off vector stably transfected and constitutively expressing the tetracycline-controlled transactivator tTA (composed of a fusion of the TetR and VP16 activation domain) were purchased from Clontech. The pBS(SK−)/PSHI cDNA containing the full length COX-1 gene (kindly supplied by Dr Stephen Prescott, University of Utah, Salt Lake City, Utah) was used as the template plasmid. The response plasmid pTRE2 (containing the minimal cytomegalovirus promoter containing Tet-operator sequences cloned upstream of the cDNA to be expressed) and the plasmid for antibiotic selection (pTK-hygromycin) for use with the Tet-Off system were purchased from Clontech. The COX-1 gene was excised from the template plasmid and ligated at the Bam H1 site of the pTRE2 vector. The orientation of the insert was verified by dideoxy DNA sequencing using the sequence specific primers: 5′-[…]-3′ (SEQ ID No 8) and 5′-[…]-3′ (SEQ ID No 9) (Clontech). Cells were plated in 12 well dishes in complete medium containing 10 μg/ml G418 per well and were allowed to attach and grow overnight. The pTRE2 vector containing the COX-1 gene (2 μg) was co-transfected with pTK-hygromycin (0.1 μg, which contains the hygromycin gene under control of the minimal thymidine kinase (TK) promoter) into the HeLa Tet-Off cell line at about 80% confluency using pfx-5 (Invitrogen, De Schelp, Netherlands) diluted in Optimem (Gibco). Cells were incubated for 4 hrs at 37° C. in 5% humidified CO2. Thereafter the medium was replaced with fresh complete medium containing no G418. Cells were allowed to grow for 72 hrs. Transfected cells were then seeded together with wild-type cells. Clones were selected against 200 μg/ml hygromycin in the presence of 1 μg/ml DOX. At least 50 hygromycin-resistant clones were picked using cloning cylinders. Clones were allowed to grow under continuous selection with hygromycin in the presence of DOX and then screened for the ability to express COX-1 in the presence and absence of DOX by immunoblot analysis. […]

[5] = tested on: EP1 receptor in COX-1 Tet-Off HeLa cells; test: Inositol phosphate accumulation (EP1 receptor activity); conditions: induced expression of COX-1 and PGE2 stimulation; data not shown
From the text: No significant difference in basal cAMP production was detected in uninduced and induced cells (FIG. 6). […] The activity of EP1 receptor was investigated by measuring inositol phosphate accumulation (41).

[6] = tested on: EP2/EP4 receptors in cervical tissue; test: cAMP production in cervical tissues in response to exogenous PGE2 or forskolin; conditions: 300 nM PGE2 or 50 μM forskolin, 5 minutes, after overnight indomethacin
Method: Cervical tissues (n=6 squamous carcinoma, n=1 adenocarcinoma and n=5 normal cervix) were sectioned finely, divided equally into three aliquots and incubated overnight in Dulbecco's Modified Eagle Medium (DMEM) (Sigma), containing 10% foetal calf serum, 0.3 mg/ml L-glutamine, 100 IU penicillin and 100 μg streptomycin and 3 μg/ml indomethacin. […] Tissue sections were harvested-by centrifugation at 2000 g. The supernatant was discarded and the tissue homogenised in 0.1 M HCl. cAMP concentration and protein concentrations were determined as mentioned above

[7] = tested on: cAMP-linked PGE2 receptors in HeLa COX-1 Tet-Off cells; test: PGE2 stimulation and cAMP measurement in HeLa COX-1 Tet-Off cells; conditions: cells grown in medium containing indomethacin, COX-1 induced 48 hrs
Method: Cells (2×10^5) were plated in 6 well dishes containing 4 ml/well of complete medium containing DOX. Cells were allowed to attach overnight. The following day, the cells were synchronised by incubating with fresh medium containing no foetal bovine serum for 24 hrs. COX-1 Tet-Off cells were induced, by DOX withdrawal from the culture medium for 48 hrs at 37° C. in humidified 5% CO2 in the presence or absence of indomethacin. In parallel, control uninduced cells were supplemented daily with DOX. Thereafter the culture medium was removed and replaced with serum-free medium containing IBMX (Sigma) to a final concentration of 1 mM for 40 mins at 37° C. […] Following stimulation, the medium was removed and the cells lysed in 0.1M HCl. cAMP concentration was quantified by ELISA using a cAMP kit (Biomol, Affiniti, Exeter, UK) as per the manufacturer's protocol and normalised to protein concentration of the lysate. Protein concentrations were determined using protein assay kits (Bio-Rad).

[8] = tested on: cAMP-dependent PGE2-receptors in HeLa cells; test: Real-time quantitative RT-PCR of PGE2 receptors after COX-1 overexpression; conditions: cells grown in medium containing indomethacin
From the text: The Tet-Off expression system we used was developed by Gossen and co-workers (38) to deliver doxycycline-regulated expression based on the high specificity of the Escherichia coli tet repressor-operator-doxycycline interaction. In the Tet-Off expression system each clonal cell line is used as its own control (cells cultured in the presence of DOX) and the overexpression of the integrated target gene is modulated solely by removing DOX from the culture medium. This eliminates the need for a control clonal cell line transfected with vector alone (as used with constitutive stable expression systems) thereby overcoming the inherent variation that arises from different sites of integration of DNA between different clones. HeLa Tet-Off cells containing the pTet-Off vector stably transfected and constitutively expressing the tetracycline-controlled transactivator tTA (composed of a fusion of the TetR and VP16 activation domain) were purchased from Clontech. The pBS(SK−)/PSHI cDNA containing the full length COX-1 gene (kindly supplied by Dr Stephen Prescott, University of Utah, Salt Lake City, Utah) was used as the template plasmid. […]

[9] = tested on: cervical carcinoma tissue and normal cervix; test: Basal cAMP levels in cervical tissues cultured overnight
Method: Determination of Basal CAMP levels in cervical tissues. Initially, basal cAMP levels were measured in cervical tissue (n=7 squamous cell carcinomas and n=5 normal cervix; FIG. 12A). Carcinoma and normal cervical tissues were obtained on the day of surgery/biopsy, sectioned finely and divided equally into three aliquots. The tissue was transported at 4° C. and then incubated in 35 mm tissue culture dishes containing 2 ml of Dulbecco's Modified Eagle Medium (DMEM) (Sigma), containing 10% foetal calf serum, 0.3 mg/ml L-glutamine, 100 IU penicillin and 100 μg streptomycin for 1.5 hours. One aliquot of tissue was snap frozen to determine basal cAMP concentration in the tissue at the time of collection. The other two aliquots were incubated overnight at 37° C. in humidified 5% CO2 in the presence or absence of 3 μg/ml indomethacin [a dual COX enzyme inhibitor (24, 32)]. Subsequently, tissue sections were harvested by centrifugation at 2000 g. The supernatant was discarded and the tissue homogenised in 0.1 M HCl. cAMP concentration was quantified by ELISA using a cAMP kit (Biomol; Affiniti, Exeter, UK) as per the manufacturer's protocol and normalised to protein concentration of the homogenate, Protein concentrations were determined using protein assay kits (Bio-Rad, Hemel Hempstead, UK).

[10] = COX-1 induced 48 hrs with inhibitor (3 μg/ml indomethacin or 10 μM NS-398), induced without inhibitor 272.2±18.8 nM
[11] = COX-1 induced 72 hrs with inhibitor (3 μg/ml indomethacin or 10 μM NS-398), induced without inhibitor 537±22.5 nM

Compound	effect on seminal plasma up-regulation of EP2/EP4 receptor expression [1]	effect on COX-1-mediated up-regulation of COX-2 expression [2]	effect on COX-1-mediated up-regulation of PGES expression [2]	effect on COX-1 overexpression [2]	effect on COX-1 associated up-regulation of Ang-1 [3]	effect on COX-1 associated up-regulation of Ang-2 [3]	effect on COX-1 associated up-regulation of bFGF [3]	PGE2 levels in culture medium [4, 10]	PGE2 levels in culture medium [4, 11]	other results
O=S(=O)(NCCNC/C=C/c1ccc(Br)cc1)c1cccc2cnccc12 [H-89]	partially abolished	–	–	–	–	–	–	–	–	–
CS(=O)(=O)Nc1ccc([N+](=O)[O-])cc1OC1CCCCC1 [NS-398]	partially abolished	No significant change; also recorded: Partial inhibition	Partial inhibition	no alteration	partially reduced; also recorded: partially inhibited	partially reduced; also recorded: partially inhibited	partially reduced; also recorded: partially inhibited	132 ± 26.2 nM	268 ± 17 nM	delay of induction of PGES by COX-1 overexpression ([2]; treatment of HeLa cells with NS-398): 24 h; effect on COX-1 associated up-regulation of VEGF [3]: partially reduced; also recorded: partially inhibited
CCCCC[C@H](O)/C=C/[C@H]1[C@H](O)CC(=O)[C@@H]1C/C=C\CCCC(=O)O [PGE2, prostaglandin E2]	–	–	–	–	–	–	–	–	–	inositol phosphate accumulation [5]: No inositol phosphate accumulation above basal
C=C[C@@]1(C)CC(=O)[C@]2(O)[C@@]3(C)[C@@H](O)CCC(C)(C)[C@@H]3[C@H](O)[C@H](OC(C)=O)[C@@]2(C)O1 [forskolin]	–	–	–	–	–	–	–	–	–	fold induction of cAMP generation in cancer tissue [6]: 55.3±15.84 fold; fold induction of cAMP generation in normal cervix [6]: 9.18±1.59 fold
COc1ccc2c(c1)c(CC(=O)O)c(C)n2C(=O)c1ccc(Cl)cc1 [indomethacin]	abolished	inhibited; also recorded: abolished	inhibited; also recorded: abolished	no alteration	abolished	abolished	abolished	62 ± 7 nM	76 ± 10.7 nM	effect on COX-1 associated up-regulation of Ang-1 ([3]; listed as Indomethacin): inhibited; effect on COX-1 associated up-regulation of Ang-2 ([3]; listed as Indomethacin): inhibited; effect on COX-1 associated up-regulation of VEGF ([3]; listed as Indomethacin): inhibited; effect on COX-1 associated up-regulation of bFGF ([3]; listed as Indomethacin): inhibited; effect on COX-1 associated up-regulation of VEGF ([3]; listed as indormethacin): abolished; effect on elevated cAMP production in COX-1 overexpressing cells in response to PGE2 [7]: abolished; effect on up-regulation of the cAMP-dependent PGE2-receptors by COX-1 overexpression [8]: inhibited; cAMP concentration in carcinoma tissue ([9]; overnight culture in presence of indomethacin, without indomethacin 64.2±5.1): 2.59±0.64 pmol cAMP/mg protein; cAMP concentration in normal cervical tissue ([9]; overnight incubation in presence of indomethacin, without indomethacin 11.96±1.35): 4.0±0.7 pmol cAMP/mg protein
